We go through 13 molecules from patent US8232401B2 (Japan Tobacco Inc., priority 2002, dated 2012).

The target of the assay is T1, HIV integrase (Human immunodeficiency virus type 1 group M subtype B, UniProt P12497, F1332H).
T1 construct: HIV integrase full length gene; made in house; host or cells: Escherichia coli BL21(DE3)
The experiment in a line: Determination of enzyme (HIV integrase) inhibitory activity (strand transfer, microtiter plate, absorbance at 450 nm). To be noted: recombinant HIV integrase (F185H) expressed in E. coli; donor DNA on streptavidin plate, digoxigenin target DNA; 37° C. The class given is biochemical, HIV (Human Immunodeficiency Virus (type 1)).
What is called IC50 is the midpoint of a concentration-inhibition curve. With `O=C(O)c1cn(CCO)c2ccc(Cc3cc(F)ccc3Cl)cc2c1=O` [Example 4-6, 6-(2-Chloro-5-fluorobenzyl)-1-(2-hydroxyethyl)-4-oxo-1,4-dihydroquinoline-3-carboxylic acid], the concentration for half-maximal inhibition (IC50) stood at 460 nM.
As for `O=C(O)c1cn(CCO)c2ccc(Cc3cc(Br)ccc3Cl)cc2c1=O` [Example 4-7, 6-(5-Bromo-2-chlorobenzyl)-1-(2-hydroxyethyl)-4-oxo-1,4-dihydroquinoline-3-carboxylic acid], the IC50 was 130 nM.
For `O=C(O)c1cn(CCO)c2cc(F)c(Cc3cccc(Cl)c3Cl)cc2c1=O` [Example 4-9, 6-(2,3-Dichlorobenzyl)-7-fluoro-1-(2-hydroxyethyl)-4-oxo-1,4-dihydroquinoline-3-carboxylic acid] the value was 21 nM; for `O=C(O)c1cn(CCO)c2ccc(Cc3cc(O)ccc3Cl)cc2c1=O` [Example 4-11, 6-(2-Chloro-5-hydroxybenzyl)-1-(2-hydroxyethyl)-4-oxo-1,4-dihydroquinoline-3-carboxylic acid], 220 nM.
For `O=C(O)c1cn(CCO)c2ccc(Cc3cccc(Cl)c3Cl)c(F)c2c1=O` [Example 4-12, 6-(2,3-Dichlorobenzyl)-5-fluoro-1-(2-hydroxyethyl)-4-oxo-1,4-dihydroquinoline-3-carboxylic acid] the value was 65 nM; for `CCOc1ccccc1Cc1ccc2c(c1)c(=O)c(C(=O)O)cn2CCO` [Example 4-13, 6-(2-Ethoxybenzyl)-1-(2-hydroxyethyl)-4-oxo-1,4-dihydroquinoline-3-carboxylic acid], 300 nM; for `Cc1cc2c(cc1Cc1cccc(Cl)c1Cl)c(=O)c(C(=O)O)cn2CCO` [Example 4-15, 6-(2,3-Dichlorobenzyl)-7-methyl-1-(2-hydroxyethyl)-4-oxo-1,4-dihydroquinoline-3-carboxylic acid], 31 nM.
In the case of `CC(C)Oc1cc(Cc2cccc(Cl)c2F)cc2c(=O)c(C(=O)O)cn([C@@H](C)CO)c12` [Example 4-16, (S)-6-(3-Chloro-2-fluorobenzyl)-1-(2-hydroxy-1-methylethyl)-8-isopropyloxy-4-oxo-1,4-dihydroquinoline-3-carboxylic acid], the IC50 was determined as 7.1 nM.
In the case of `CC[C@@H](CO)n1cc(C(=O)O)c(=O)c2cc(Cc3cccc(Cl)c3F)cc(OC(C)C)c21` [Example 4-17, (S)-6-(3-Chloro-2-fluorobenzyl)-1-[1-(hydroxymethyl)propyl]-8-isopropyloxy-4-oxo-1,4-dihydroquinoline-3-carboxylic acid], the IC50 is 3.1 nM.
For `O=C(O)c1cn([C@H](CO)C2CCCCC2)c2ccc(Cc3cccc(Cl)c3F)cc2c1=O` [Example 4-18, (S)-6-(3-Chloro-2-fluorobenzyl)-1-(1-cyclohexyl-2-hydroxyethyl)-4-oxo-1,4-dihydroquinoline-3-carboxylic acid] the value was 2 nM; for `CC(C)Oc1cc2c(cc1Cc1cccc(Cl)c1F)c(=O)c(C(=O)O)cn2[C@H](CO)C(C)C` [Example 4-19, (S)-6-(3-Chloro-2-fluorobenzyl)-1-(1-hydroxymethyl-2-methylpropyl)-7-isopropyloxy-4-oxo-1,4-dihydroquinoline-3-carboxylic acid], 2.9 nM.
For `CC(C)Oc1cc2c(cc1Cc1cccc(Cl)c1F)c(=O)c(C(=O)O)cn2[C@H](CO)C(C)(C)C` [Example 4-20, (S)-6-(3-Chloro-2-fluorobenzyl)-1-[2,2-dimethyl-1-(hydroxymethyl)propyl]-7-isopropyloxy-4-oxo-1,4-dihydroquinoline-3-carboxylic acid] the value was 1.7 nM; for `CCOc1cc(Cc2cccc(Cl)c2F)cc2c(=O)c(C(=O)O)cn([C@@H](CC)CO)c12` [Example 4-21, (S)-6-(3-Chloro-2-fluorobenzyl)-8-ethoxy-1-[1-(hydroxymethyl)propyl]-4-oxo-1,4-dihydroquinoline-3-carboxylic acid], 4.5 nM.
